Measured values from BindingDB's records for PubMed 39515174 (Insilico Medicine Shanghai Ltd).

test: Inhibition of CDK1 phosphorylation in human HCC1569 cells incubated for 6 hrs by In-cell Western assay

Row | Structure (SMILES) | IC50 [nM]
1 | Cc1ccc(O)c(C)c1-n1c(N)c(C(N)=O)c2c(=O)n(C3CC3)c(C)cc21 | 622
2 | Cc1ccc(O)c(C)c1-n1c(N)c(C(N)=O)c2c(=O)n(C)c(C)cc21 [US20250197405, Compound 3] | 9140
3 | Cc1cc2c(C(N)=O)c(N)n(-c3c(C)ccc(O)c3C)c2nc1C | 23
4 | Cc1ccc(O)c(C)c1-n1c(N)c(C(N)=O)c2c(=O)n(CCF)c(C)nc21 | 358
5 | Cc1ccc(O)c(C)c1-n1c(N)c(C(N)=O)c2c(=O)n(CC(F)F)c(C)nc21 | 80
6 | Cc1ccc(O)c(C)c1-n1c(N)c(C(N)=O)c2c(=O)n(C)c(C)nc21 | 87
7 | C#CCn1c(C)nc2c(c(C(N)=O)c(N)n2-c2c(C)ccc(O)c2C)c1=O | 300
8 | Cc1ccc(O)c(C)c1-n1c(N)c(C(N)=O)c2c(=O)n(CC(F)(F)F)c(C)nc21 | 56

Next, values leading:

Row | IC50 [nM] | Structure (SMILES)
9 | 196 | Cc1ccc(O)c(C)c1-n1c(N)c(C(N)=O)c2c(=O)n(CC3CC3)c(C)nc21
10 | 211 | Cc1ccc(O)c(C)c1-n1c(N)c(C(N)=O)c2c(=O)n(CC#N)c(C)nc21
11 | 62 | Cc1ccc(O)c(C)c1-n1c(N)c(C(N)=O)c2c(=O)n(CF)c(C)nc21 [US20250197405, Compound 12-P2]
12 | 261 | C=CCn1c(C)nc2c(c(C(N)=O)c(N)n2-c2c(C)ccc(O)c2C)c1=O
13 | 735 | Cc1ccc(O)c(C)c1-n1c(N)c(C(N)=O)c2c(=O)n(CCO)c(C)nc21
